From PMC12892976, “Alkylation-based optimization of antifungal FPPS inhibitors yields a potent, broad-spectrum lipophilic zoledronate derivative” (mBio, 2025)
Like-named read-outs stand apart in the source and are kept apart here.

Key:
Saccharomyces cerevisiae [1] = test: MIC/MFC broth microdilution (CLSI); type: cell-based; conditions: Saccharomyces cerevisiae S288c
Description: (§1) Antifungal susceptibility was determined by broth microdilution according to the CLSI guidelines described in M27-Ed4 ([16]). […] MFC was determined by back-plating drug-treated cultures from MIC broths onto SDA plates. The MFC was defined as the lowest concentration from which no colonies could be cultured.

Trichophyton rubrum [2] = test: MIC/MFC broth microdilution (CLSI); conditions: Trichophyton rubrum
Description: as §1

Candida glabrata [3] = test: MIC/MFC broth microdilution (CLSI); conditions: Nakaseomyces glabratus, CBS138;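 further: broth microdilution following CLSI M27-Ed4, MFC taken as the lowest drug level yielding no growth once MIC wells were subcultured on SDA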
Description: as §1

Saccharomyces cerevisiae [4] = test: checkerboard drug interaction (FICI, MICc);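 on all read-outs here: simplified diagonal checkerboard screen pairing antifungals with FPPS inhibitors, FICI calculated under the Loewe additivity model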; type: cell-based; set-up: INH MICc / INH MICc (ITR:INH) / INH MICc (KET:INH) / INH MICc (FLC:INH): unit not given beside the values; conditions: S. cerevisiae; for INH FD (MIC-MICc fold decrease): fold decrease of inhibitor MIC
Candida albicans [5] = test: checkerboard drug interaction (FICI, MICc);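 on all read-outs here: antifungal plus FPPS inhibitor combinations on Candida albicans tested by a simplified diagonal checkerboard screen, with FICI calculated under the Loewe additivity model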; type: cell-based; conditions: C. albicans; for INH FD (MIC-MICc fold decrease): fold decrease of inhibitor MIC
Description: (§2) Drug interactions between antifungals and FPPS inhibitors were investigated using a simplified checkerboard diagonal screening method ([45]). […] FICIs were determined according to the Loewe additivity model ([17]).

eight fungal species [6] = test: checkerboard interaction with azoles, summary across the eight species; type: cell-based; conditions: geometric mean MIC in combination with azoles
Description: Synergy between lipophilic FPPS inhibitors and azole antifungals was investigated by determining the fractional inhibitory concentration index (FICI) (Fig. 2; Table S1 Fig. S1) ([17]). […]. Derivatives PLA9 and 11, and PDA9, 11, and 12 antagonized azoles in C. albicans, C. neoformans, and C. deuterogattii, yet were largely synergistic in C. glabrata and S. cerevisiae. […].

Aspergillus flavus [7] = test: checkerboard drug interaction (FICI, MICc);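 further: simplified diagonal checkerboard screen pairing azole antifungals with FPPS inhibitors, FICI calculated under the Loewe additivity model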; type: cell-based; set-up: INH MICc (KET:INH) / INH MICc (FLC:INH): unit not given beside the values; conditions: A. flavus
Cryptococcus neoformans [8] = test: checkerboard drug interaction (FICI, MICc);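 on all read-outs here: antifungal plus FPPS inhibitor pairs tested against Cryptococcus neoformans by simplified diagonal checkerboard screening, FICI computed under the Loewe additivity model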; type: cell-based; conditions: C. neoformans; for INH FD (MIC-MICc fold decrease): fold decrease of inhibitor MIC
Description: as §2

eight fungal species [9] = test: MIC/MFC summary across the eight fungal species of Table 1; type: cell-based
Description: The antifungal activity of these compounds was evaluated according to CLSI guidelines ([16]).

Aspergillus fumigatus [10] = test: MIC/MFC broth microdilution (CLSI); conditions: ATCC204305
Description: as §1

Aspergillus flavus [11] = test: MIC/MFC broth microdilution (CLSI); conditions: ATCC204304
Description: as §1

Cryptococcus neoformans [12] = test: MIC/MFC broth microdilution (CLSI); conditions: Cryptococcus neoformans;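 further: susceptibility testing followed the CLSI M27-Ed4 broth microdilution document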
Description: as §1

[13] = system: Cryptococcus deuterogattii; test: MIC/MFC broth microdilution (CLSI); conditions: Cryptococcus deuterogattii;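 further: broth microdilution per CLSI M27-Ed4. MFC is the lowest concentration yielding no colonies when MIC broths are subcultured onto SDA plates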
Description: as §1

Candida glabrata [14] = test: checkerboard drug interaction (FICI, MICc);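 on all read-outs here: simplified diagonal checkerboard screen pairing antifungals with FPPS inhibitors, FICI calculated under the Loewe additivity model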; type: cell-based; conditions: C. glabrata; for INH FD (MIC-MICc fold decrease): fold decrease of inhibitor MIC
Description: as §2

Trichophyton rubrum [15] = test: checkerboard drug interaction (FICI, MICc);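 further: simplified diagonal checkerboard screen pairing azole antifungals with FPPS inhibitors, FICI calculated under the Loewe additivity model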; type: cell-based; conditions: T. rubrum
Description: as §2

Aspergillus fumigatus [16] = test: checkerboard drug interaction (FICI, MICc);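 on all read-outs here: simplified diagonal checkerboard screen pairing antifungals with FPPS inhibitors against Aspergillus fumigatus, with FICI calculated under the Loewe additivity model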; type: cell-based; conditions: A. fumigatus; for INH FD (MIC-MICc fold decrease): fold decrease of inhibitor MIC
Description: as §2

[17] = system: Cryptococcus deuterogattii; test: checkerboard drug interaction (FICI, MICc);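 on all read-outs here: simplified diagonal checkerboard screen pairing antifungal drugs with FPPS inhibitors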; type: cell-based; conditions: C. deuterogattii; for INH FD (MIC-MICc fold decrease): fold decrease of inhibitor MIC
Description: as §2

HEK-293T cells = test: MTT reduction cytotoxicity assay; type: cell-based; conditions: Homo sapiens, HEK-293T, 72 h, HEK-293T, MTT, 72 h; read-out: HEK IC50
Candida albicans [18] = test: MIC/MFC broth microdilution (CLSI); type: cell-based; conditions: Candida albicans SC5314
Description: as §1

[19] = FLC:INH combination, MIC of FLC in combination with the inhibitor
[20] = FLC:INH combination, MIC of the inhibitor in combination with FLC
[21] = FLC:INH combination, fold decrease of FLC MIC
[22] = ITR:INH combination, MIC of ITR in combination with the inhibitor
[23] = ITR:INH combination, MIC of the inhibitor in combination with ITR
[24] = ITR:INH combination, fold decrease of ITR MIC
[25] = KET:INH combination, MIC of KET in combination with the inhibitor
[26] = KET:INH combination, MIC of the inhibitor in combination with KET
[27] = KET:INH combination, fold decrease of KET MIC
[28] = Fractional Inhibitory Concentration Index, fluconazole + inhibitor
[29] = Fractional Inhibitory Concentration Index, itraconazole + inhibitor
[30] = Fractional Inhibitory Concentration Index, ketoconazole + inhibitor
[31] = MIC of the inhibitor in combination with fluconazole
[32] = MIC of the inhibitor in combination with itraconazole
[33] = MIC of the inhibitor in combination with ketoconazole
[34] = MIC-MICc fold decrease of fluconazole, negative = increase
[35] = MIC-MICc fold decrease of itraconazole, negative = increase
[36] = MIC-MICc fold decrease of ketoconazole, negative = increase
[37] = MIC-MICc fold decrease of the inhibitor, with fluconazole
[38] = MIC-MICc fold decrease of the inhibitor, with itraconazole
[39] = MIC-MICc fold decrease of the inhibitor, with ketoconazole

Compound: CCCCCCCCCN1CCC[C@H]1C(=O)N[C@@H](CC(=O)O)C(=O)O [PLA9]
- MFC (Saccharomyces cerevisiae [1]): > 128 µg/mL
- MIC (Saccharomyces cerevisiae [1]): > 128 µg/mL
- MFC (Trichophyton rubrum [2]): > 128 µg/mL
- MIC (Trichophyton rubrum [2]): > 128 µg/mL
- MFC (Candida glabrata [3]): > 128 µg/mL
- MIC (Candida glabrata [3]): > 128 µg/mL
- FICI (Saccharomyces cerevisiae [4]; FLC:INH combination): 0.31
- FLC MICc (Saccharomyces cerevisiae [4]; [19]): 1
- INH MICc (Saccharomyces cerevisiae [4]; [20]): 16
- FLC FD (MIC-MICc fold decrease) (Saccharomyces cerevisiae [4]; [21]): 4
- INH FD (MIC-MICc fold decrease) (Saccharomyces cerevisiae [4]; FLC:INH combination): 16
- FICI (Saccharomyces cerevisiae [4]; ITR:INH combination): 0.5
- ITR MICc (Saccharomyces cerevisiae [4]; [22]): 0.063
- INH MICc (Saccharomyces cerevisiae [4]; [23]): 64
- ITR FD (MIC-MICc fold decrease) (Saccharomyces cerevisiae [4]; [24]): 4
- INH FD (MIC-MICc fold decrease) (Saccharomyces cerevisiae [4]; ITR:INH combination): 4
- FICI (Saccharomyces cerevisiae [4]; KET:INH combination): 0.19
- KET MICc (Saccharomyces cerevisiae [4]; [25]): 0.25
- INH MICc (Saccharomyces cerevisiae [4]; [26]): 16
- KET FD (MIC-MICc fold decrease) (Saccharomyces cerevisiae [4]; [27]): 8
- INH FD (MIC-MICc fold decrease) (Saccharomyces cerevisiae [4]; KET:INH combination): 16
- FICI (Candida albicans [5]; FLC:INH combination): ≥4
- INH MICc (Candida albicans [5]; [20]): 64
- FLC FD (MIC-MICc fold decrease) (Candida albicans [5]; [21]): < -4
- INH FD (MIC-MICc fold decrease) (Candida albicans [5]; FLC:INH combination): 4
- FICI (Candida albicans [5]; ITR:INH combination): 0.52
- INH MICc (Candida albicans [5]; [23]): 4
- ITR FD (MIC-MICc fold decrease) (Candida albicans [5]; [24]): 2
- INH FD (MIC-MICc fold decrease) (Candida albicans [5]; ITR:INH combination): 64
- FICI (Candida albicans [5]; KET:INH combination): ≥4
- INH MICc (Candida albicans [5]; [26]): 64
- KET FD (MIC-MICc fold decrease) (Candida albicans [5]; [27]): < -4
- INH FD (MIC-MICc fold decrease) (Candida albicans [5]; KET:INH combination): 4
- GM fungal MICc (eight fungal species [6]): 53.8
- FICI (FLC:INH) (Aspergillus flavus [7]; [28]): 2
- FICI (ITR:INH) (Aspergillus flavus [7]; [29]): 1.5
- FICI (KET:INH) (Aspergillus flavus [7]; [30]): 1
- INH MICc (FLC:INH) (Aspergillus flavus [7]; [31]): 256
- INH MICc (ITR:INH) (Aspergillus flavus [7]; [32]): 128
- INH MICc (KET:INH) (Aspergillus flavus [7]; [33]): 128
- FLC FD (FLC:INH) (Aspergillus flavus [7]; [34]): 1
- ITR FD (ITR:INH) (Aspergillus flavus [7]; [35]): 1
- KET FD (KET:INH) (Aspergillus flavus [7]; [36]): 2
- INH FD (FLC:INH) (Aspergillus flavus [7]; [37]): 1
- INH FD (ITR:INH) (Aspergillus flavus [7]; [38]): 2
- INH FD (KET:INH) (Aspergillus flavus [7]; [39]): 2
- FICI (Cryptococcus neoformans [8]; FLC:INH combination): ≥4
- INH MICc (Cryptococcus neoformans [8]; [20]): 256
- FLC FD (MIC-MICc fold decrease) (Cryptococcus neoformans [8]; [21]): < -4
- INH FD (MIC-MICc fold decrease) (Cryptococcus neoformans [8]; FLC:INH combination): 1
- FICI (Cryptococcus neoformans [8]; ITR:INH combination): ≥4
- INH MICc (Cryptococcus neoformans [8]; [23]): 128
- ITR FD (MIC-MICc fold decrease) (Cryptococcus neoformans [8]; [24]): -4
- INH FD (MIC-MICc fold decrease) (Cryptococcus neoformans [8]; ITR:INH combination): 2
- FICI (Cryptococcus neoformans [8]; KET:INH combination): ≥4
- INH MICc (Cryptococcus neoformans [8]; [26]): 128
- KET FD (MIC-MICc fold decrease) (Cryptococcus neoformans [8]; [27]): -4
- INH FD (MIC-MICc fold decrease) (Cryptococcus neoformans [8]; KET:INH combination): 2
- MFC (eight fungal species [9]; across eight species, read-out: Geometric mean MFC): > 128 µg/mL
- MIC (eight fungal species [9]; geometric mean across eight species, read-out: GM fungal MIC): > 128 µg/mL
- MIC (eight fungal species [9]; read-out: Geometric mean MIC): > 128 µg/mL
- MFC (Aspergillus fumigatus [10]): > 128 µg/mL
- MIC (Aspergillus fumigatus [10]): > 128 µg/mL
- MFC (Aspergillus flavus [11]): > 128 µg/mL
- MIC (Aspergillus flavus [11]): > 128 µg/mL
- MFC (Cryptococcus neoformans [12]): > 128 µg/mL
- MIC (Cryptococcus neoformans [12]): > 128 µg/mL
- MFC [13]: > 128 µg/mL
- MIC [13]: > 128 µg/mL
- FICI (Candida glabrata [14]; FLC:INH combination): 0.31
- INH MICc (Candida glabrata [14]; [20]): 4
- FLC FD (MIC-MICc fold decrease) (Candida glabrata [14]; [21]): 4
- INH FD (MIC-MICc fold decrease) (Candida glabrata [14]; FLC:INH combination): 64
- FICI (Candida glabrata [14]; ITR:INH combination): 0.28
- INH MICc (Candida glabrata [14]; [23]): 2
- ITR FD (MIC-MICc fold decrease) (Candida glabrata [14]; [24]): 4
- INH FD (MIC-MICc fold decrease) (Candida glabrata [14]; ITR:INH combination): 128
- FICI (Candida glabrata [14]; KET:INH combination): 0.28
- INH MICc (Candida glabrata [14]; [26]): 2
- KET FD (MIC-MICc fold decrease) (Candida glabrata [14]; [27]): 4
- INH FD (MIC-MICc fold decrease) (Candida glabrata [14]; KET:INH combination): 128
- FICI (FLC:INH) (Trichophyton rubrum [15]; [28]): 3
- FICI (ITR:INH) (Trichophyton rubrum [15]; [29]): 2
- FICI (KET:INH) (Trichophyton rubrum [15]; [30]): 1.5
- INH MICc (FLC:INH) (Trichophyton rubrum [15]; [31]): 256
- INH MICc (ITR:INH) (Trichophyton rubrum [15]; [32]): 256
- INH MICc (KET:INH) (Trichophyton rubrum [15]; [33]): 128
- FLC FD (FLC:INH) (Trichophyton rubrum [15]; [34]): -2
- ITR FD (ITR:INH) (Trichophyton rubrum [15]; [35]): 1
- KET FD (KET:INH) (Trichophyton rubrum [15]; [36]): 1
- INH FD (FLC:INH) (Trichophyton rubrum [15]; [37]): 1
- INH FD (ITR:INH) (Trichophyton rubrum [15]; [38]): 1
- INH FD (KET:INH) (Trichophyton rubrum [15]; [39]): 2
- FICI (Aspergillus fumigatus [16]; FLC:INH combination): 2
- FLC MICc (Aspergillus fumigatus [16]; [19]): 128
- INH MICc (Aspergillus fumigatus [16]; [20]): 256
- FLC FD (MIC-MICc fold decrease) (Aspergillus fumigatus [16]; [21]): 1
- INH FD (MIC-MICc fold decrease) (Aspergillus fumigatus [16]; FLC:INH combination): 1
- FICI (Aspergillus fumigatus [16]; ITR:INH combination): 0.51
- ITR MICc (Aspergillus fumigatus [16]; [22]): 0.063
- INH MICc (Aspergillus fumigatus [16]; [23]): 2
- ITR FD (MIC-MICc fold decrease) (Aspergillus fumigatus [16]; [24]): 2
- INH FD (MIC-MICc fold decrease) (Aspergillus fumigatus [16]; ITR:INH combination): 128
- FICI (Aspergillus fumigatus [16]; KET:INH combination): 1.5
- KET MICc (Aspergillus fumigatus [16]; [25]): 4
- INH MICc (Aspergillus fumigatus [16]; [26]): 128
- KET FD (MIC-MICc fold decrease) (Aspergillus fumigatus [16]; [27]): 1
- INH FD (MIC-MICc fold decrease) (Aspergillus fumigatus [16]; KET:INH combination): 2
- FICI ([17]; FLC:INH combination): ≥4
- INH MICc [17, 20]: 256
- FLC FD (MIC-MICc fold decrease) [17, 21]: -4
- INH FD (MIC-MICc fold decrease) ([17]; FLC:INH combination): 1
- FICI ([17]; ITR:INH combination): ≥4
- INH MICc [17, 23]: 256
- ITR FD (MIC-MICc fold decrease) [17, 24]: < -4
- INH FD (MIC-MICc fold decrease) ([17]; ITR:INH combination): 1
- FICI ([17]; KET:INH combination): 1
- INH MICc [17, 26]: 128
- KET FD (MIC-MICc fold decrease) [17, 27]: 2
- INH FD (MIC-MICc fold decrease) ([17]; KET:INH combination): 2
- IC50 (HEK-293T cells): > 256 µg/mL
- MFC (Candida albicans [18]): > 128 µg/mL
- MIC (Candida albicans [18]): > 128 µg/mL
